Reference: article PMC10675840, “Structure-function analysis of ceTIR-1/hSARM1 explains the lack of Wallerian axonal degeneration in C. elegans” (Cell reports, 2023)
Positions count from the first letter of the chain named.

Columns and labels:
Experiment in all cases: HPLC NAD+ consumption, Michaelis-Menten fit
Format in all cases: biochemical
Conditions in all cases: […] C, […] min, pH […]
ceTIR-1 [1] = molecular target: T1, ceTIR-1 (Caenorhabditis elegans, UniProt Q86DA5, F863W)
T1 construct: gene tir-1; near-intact ARM-SAM-SAM-TIR, residues 162-872 (HMD...QQR), N-terminal 6xHis + TEV site, HEK293F expression, mostly 9-mer ring, partly dissociated
T1 sequence (Q86DA5 216-926 F863W): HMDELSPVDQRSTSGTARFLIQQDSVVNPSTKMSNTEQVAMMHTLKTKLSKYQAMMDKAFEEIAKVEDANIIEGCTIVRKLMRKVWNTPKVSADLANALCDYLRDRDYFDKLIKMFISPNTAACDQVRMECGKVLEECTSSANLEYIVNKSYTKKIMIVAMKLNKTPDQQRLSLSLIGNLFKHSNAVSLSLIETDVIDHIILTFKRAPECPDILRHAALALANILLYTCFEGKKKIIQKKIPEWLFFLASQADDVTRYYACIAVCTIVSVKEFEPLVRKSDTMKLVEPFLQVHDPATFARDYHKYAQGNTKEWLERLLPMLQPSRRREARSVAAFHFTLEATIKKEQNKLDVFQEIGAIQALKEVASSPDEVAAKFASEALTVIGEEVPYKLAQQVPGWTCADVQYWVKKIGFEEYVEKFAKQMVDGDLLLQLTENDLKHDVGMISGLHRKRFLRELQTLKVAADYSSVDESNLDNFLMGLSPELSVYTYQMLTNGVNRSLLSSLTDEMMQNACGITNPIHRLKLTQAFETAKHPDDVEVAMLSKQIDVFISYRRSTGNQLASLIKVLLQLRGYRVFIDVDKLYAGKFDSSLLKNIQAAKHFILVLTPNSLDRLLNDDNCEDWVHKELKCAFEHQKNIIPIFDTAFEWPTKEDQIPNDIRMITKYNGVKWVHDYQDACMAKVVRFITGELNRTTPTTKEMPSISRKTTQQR

ceTIR-1 [2] = molecular target: T2, ceTIR-1 (Caenorhabditis elegans, UniProt Q86DA5, D888E)
T2 construct: gene tir-1; near-intact ARM-SAM-SAM-TIR, residues 162-872 (HMD...QQR), N-terminal 6xHis + TEV site, HEK293F expression, mostly 9-mer ring, partly dissociated
T2 sequence (Q86DA5 216-926 D888E): T1 sequence (Q86DA5 216-926 F863W) with W648F, D673E

ceTIR-1 [3] = molecular target: T3, ceTIR-1 (Caenorhabditis elegans, UniProt Q86DA5, R828K)
T3 construct: gene tir-1; near-intact ARM-SAM-SAM-TIR, residues 162-872 (HMD...QQR), N-terminal 6xHis + TEV site, HEK293F expression, mostly 9-mer ring, partly dissociated
T3 sequence (Q86DA5 216-926 R828K): T1 sequence (Q86DA5 216-926 F863W) with R613K, W648F

NC(=O)c1ccc[n+]([C@@H]2O[C@H](COP(=O)(O)OP(=O)(O)OC[C@H]3O[C@@H](n4cnc5c(N)ncnc54)[C@H](O)[C@@H]3O)[C@@H](O)[C@H]2O)c1 [NAD^+]
Km (ceTIR-1 [1]): none of these substitutions had any significant effect on Km | Km (ceTIR-1 [2]): none of these substitutions had any significant effect on Km | Km (ceTIR-1 [3]): none of these substitutions had any significant effect on Km
